According to patent US20220257559A1, “INTESTINAL MICROBIOME-IMPROVING COMPOSITION INCLUDING ELLAGIC ACID AS ACTIVE INGREDIENT” (Andong National University Industry-Academic Cooperation …, priority 2021, published 2022):

Key:
Type in all cases: in vivo
[1] = test system: ZO-1 and β-catenin; experiment: intestinal tight junction (TJ) and anchoring junction (AJ) protein expression in alcohol-exposed mice; conditions: EA-pretreated group within the alcohol-exposed group; FIG. 10
Method: All animal testing procedures were performed in accordance with Andong National University's small animal testing guidelines, and were approved by the Andong National University Animal Care and Use Committee. All mice were housed where food and water were provided autonomously, and lighting was controlled (12-hour light/dark cycle). The ellagic acid was orally administered to 6-week-old female C57BL/6J mice at a daily dose of 60 mg/Kg as a physiologically and clinically relevant dose, and 200 mg/Kg silymarin was administered as a positive control. Water was orally administered to control mice. […]
Portions of liver tissue and small intestine from each mouse were homogenized with RIPA buffer. […] Relative protein images were determined using the HRP-binding secondary antibody and an ECL substrate (Thermo Fishers). The intensity of immune response bands was quantified by density using ImageJ software (National Institutes of Health).
(§1) Changes in the expression of intestinal tight junction (TJ) and anchoring junction (AJ) proteins are observed in mouse models with alcohol-induced intestinal leak. To evaluate whether ellagic acid (EA) prevents alcohol-induced intestinal leakage, the expression levels of intestinal TJ and AJ proteins after the ellagic acid administration were measured.

[2] = test system: plasma ROS; experiment: plasma ROS level (DCFH-DA) in alcohol-exposed mice; conditions: FIG. 18
Method: (§2) All animal testing procedures were performed in accordance with Andong National University's small animal testing guidelines, and were approved by the Andong National University Animal Care and Use Committee. All mice were housed where food and water were provided autonomously, and lighting was controlled (12-hour light/dark cycle). The ellagic acid was orally administered to 6-week-old female C57BL/6J mice at a daily dose of 60 mg/Kg as a physiologically and clinically relevant dose, and 200 mg/Kg silymarin was administered as a positive control. Water was orally administered to control mice. After the administration of ellagic acid for 14 days, alcohol or dextrose (control) was orally administered to some of the mice at a dose of 5 g/Kg, three times at 12-hour intervals. The mice were sacrificied 1 hour after the last administration.
(§3) Levels of plasma ROS were visualized with 2′,7′-dichlorofluorescein diacetate (DCFH-DA) purchased from Thermo Fisher Scientific. After the DCFH-DA was incubated at 37° C. for 20 minutes, DCFH-DA fluorescence was measured. Plasma alcohol levels were measured using a commercially available kit manufactured by BioVision.
CYP2E1 generates reactive oxygen species (ROS) in alcoholic and nonalcoholic liver disease.

[3] = test system: hepatic triglyceride (TG); experiment: hepatic triglyceride (TG) level in alcohol-exposed mice; conditions: EA-pretreated group vs alcohol-exposed group; FIG. 14
Method: as §2
The level of triglyceride (TG) in the liver was measured using a commercially available kit manufactured by Asan Co., Ltd. (Gimpo, South Korea).
(§4) To evaluate the effect of ellagic acid (EA) on hepatic fat accumulation, and plasma ALT and hepatic triglyceride levels, liver tissues taken from mouse models were histologically analyzed through H/E staining and Oil Red O staining.

[4] = test system: plasma endotoxin; experiment: plasma endotoxin level (LAL chromogenic kit) in alcohol-exposed mice; conditions: EA-pretreated group vs alcohol-exposed group; EA 60 mg/Kg daily oral 14 days; FIG. 7
Method: as §2
Plasma endotoxin levels were measured using a commercial endpoint LAL Chromogenic Endotoxin Quantitation Kit manufactured by Thermo Fisher Scientific (Waltham, Mass.) and having a concentration range of 0.015 to 1.2 EU/mL.
(§5) Intestinal microbial products can be stimulated by intestinal leak and endotoxins. Plasma endotoxin and intestinal TNF-α levels were measured to determine whether ellagic acid (EA)-mediated prophylaxis occurred at altered levels of microbial composition.

[5] = test system: TNF-α; experiment: intestinal TNF-α level (ELISA) in alcohol-exposed mice; conditions: EA pretreatment vs alcohol-exposed group; EA 60 mg/Kg daily oral 14 days; FIG. 8
Method: as §2
Liver solutions were analyzed using an ELISA kit for TNF-α, manufactured by Abcam (Cambridge, United Kingdom), according to the manufacturer's instructions. To use equal amounts of protein for the ELISA, protein concentration was measured with BCA reagent manufactured by BioRad (Hercules, Calif.). […]
as §5

[6] = test system: CYP2E1, iNOS, and 3-NT proteins in the intestine; experiment: intestinal oxidative stress marker proteins (immunoblot) in alcohol-exposed mice; conditions: EA-pretreated group vs alcohol-exposed group; FIG. 9
Method: Portions of liver tissue and small intestine from each mouse were homogenized with RIPA buffer. Equally pooled protein in an amount of 50 ug collected from different mouse samples within the same group were separated by SDS/PAGE and transferred to nitrocellulose membranes. These membranes were incubated with polyclonal antibodies against CYP2E1 (1:5,000 dilution; Abcam), p-JNK (1:1,000 dilution; Cell Signaling), 3-NT (1:5,000 dilution; Abcam), iNOS (1:5,000 dilution; Abcam), cleaved caspase-3 (1:1,000 dilution; Cell Signaling), ZO-1 (1:5,000 dilution; Abcam), and claudin-1 (1:1,000 dilution; Thermo Fisher). Each mouse monoclonal antibody against JNK (1:1,000 dilution; Cell Signaling), Bax (1:1,000 dilution; Santa Cruz Biotechnology), or +-actin (1:10,000 dilution; Santa Cruz Biotechnology) was used to detect specific antigenic targets. […] Relative protein images were determined using the HRP-binding secondary antibody and an ECL substrate (Thermo Fishers). The intensity of immune response bands was quantified by density using ImageJ software (National Institutes of Health).
To evaluate the effect of ellagic acid on intestinal oxidative stress, the expression levels of CYP2E1, iNOS, and 3-NT proteins were measured.

[7] = test system: intestinal cells; experiment: apoptosis of intestinal cells in alcohol-exposed mice; conditions: EA pretreatment group, alcohol-induced; FIG. 11
Method: as §2
Small intestine and liver specimens were fixed overnight in 10% buffered formalin and embedded in paraffin. […]
as §1

[8] = test system: CYP2E1, iNOS and 3-NT proteins in the liver; experiment: hepatic CYP2E1 expression and activity and oxidative stress marker proteins in alcohol-exposed mice
Method: CYP2E1 Activity Analysis Liver solutions were each analyzed with an ELISA kit for CYP2E1, manufactured by Claud-clone corporation (Houston, Tex.), according to the manufacturer's instructions.
Portions of liver tissue and small intestine from each mouse were homogenized with RIPA buffer. Equally pooled protein in an amount of 50 ug collected from different mouse samples within the same group were separated by SDS/PAGE and transferred to nitrocellulose membranes. These membranes were incubated with polyclonal antibodies against CYP2E1 (1:5,000 dilution; Abcam), p-JNK (1:1,000 dilution; Cell Signaling), 3-NT (1:5,000 dilution; Abcam), iNOS (1:5,000 dilution; Abcam), cleaved caspase-3 (1:1,000 dilution; Cell Signaling), ZO-1 (1:5,000 dilution; Abcam), and claudin-1 (1:1,000 dilution; Thermo Fisher). Each mouse monoclonal antibody against JNK (1:1,000 dilution; Cell Signaling), Bax (1:1,000 dilution; Santa Cruz Biotechnology), or +-actin (1:10,000 dilution; Santa Cruz Biotechnology) was used to detect specific antigenic targets. After washing the nitrocellulose membranes three times with PBS at 10-minute intervals, horseradish peroxidase (HRP)-conjugated anti-rabbit or anti-mouse IgG (manufactured by Santa Cruz Biotechnology) was diluted at a ratio of 1:5,000 and used as a secondary antibody. Relative protein images were determined using the HRP-binding secondary antibody and an ECL substrate (Thermo Fishers). The intensity of immune response bands was quantified by density using ImageJ software (National Institutes of Health).
To evaluate the effect of ellagic acid (EA) on hepatic oxidative stress, the expression and activity levels of CYP2E1 proteins were measured.

[9] = test system: plasma ALT; experiment: plasma ALT level in alcohol-exposed mice; conditions: EA-pretreated group vs alcohol-exposed group; FIG. 15
Method: as §2
(§6) Portions of the largest liver lobes or small intestines from the mice pretreated with ellagic acid and from the controls were fixed in neutral formalin. […] Plasma ALT levels of each mouse were measured using a standard endpoint colorimetric assay kit (Bio Vision, Milpitas, Calif.).
as §4

[10] = test system: cecal microbiota; experiment: cecal microbiota 16S sequencing, alcohol exposure and EA pretreatment in mice
Method: All animal testing procedures were performed in accordance with Andong National University's small animal testing guidelines, and were approved by the Andong National University Animal Care and Use Committee. All mice were housed where food and water were provided autonomously, and lighting was controlled (12-hour light/dark cycle). The ellagic acid was orally administered to 6-week-old female C57BL/6J mice at a daily dose of 60 mg/Kg as a physiologically and clinically relevant dose, and 200 mg/Kg silymarin was administered as a positive control. Water was orally administered to control mice. After the administration of ellagic acid for 14 days, alcohol or dextrose (control) was orally administered to some of the mice at a dose of 5 g/Kg, three times at 12-hour intervals. The mice were […] 1 hour after the last administration. Fecal samples were aseptically collected from the cecum of each mouse and frozen at -80° C. DNA was extracted using the Mag-Bind Universal Pathogen DNA Kit (Chunlab, Seoul, South Korea) according to the manufacturer's instructions. DNA sequencing of bacterial 16S rRNA in each fecal sample was performed at Chunlab (https://www.chunlab.com/). Intestinal microbiome and bacterial products have been associated with liver diseases (ALD). To evaluate the effect of ellagic acid (EA) on the intestinal microbial distribution in an alcoholic liver disease model, the cecal microbiota according to alcohol exposure and EA pretreatment in mice was evaluated according to the experimental design of FIG. 1. […] However, in the case of the alcohol exposure group, Verrucomicrobia phylum increased whereas Firmicutes phylum decreased.

[11] = test system: fat accumulation in the liver; experiment: liver histology (H/E and Oil Red O staining) in alcohol-exposed mice; conditions: EA-pretreated group vs alcohol-exposed group, FIGS. 12 and 13
Method: as §2, §6, §4

[12] = test system: p-JNK, Bax, cleaved caspase-3 in the liver; experiment: liver apoptosis markers (Western blot, cleaved caspase-3 staining, TUNEL) in alcohol-exposed mice
Method: as §2
Portions of liver tissue and small intestine from each mouse were homogenized with RIPA buffer. Equally pooled protein in an amount of 50 ug collected from different mouse samples within the same group were separated by SDS/PAGE and transferred to nitrocellulose membranes. These membranes were incubated with polyclonal antibodies against CYP2E1 (1:5,000 dilution; Abcam), p-JNK (1:1,000 dilution; Cell Signaling), 3-NT (1:5,000 dilution; Abcam), iNOS (1:5,000 dilution; Abcam), cleaved caspase-3 (1:1,000 dilution; Cell Signaling), ZO-1 (1:5,000 dilution; Abcam), and claudin-1 (1:1,000 dilution; Thermo Fisher). Each mouse monoclonal antibody against JNK (1:1,000 dilution; Cell Signaling), Bax (1:1,000 dilution; Santa Cruz Biotechnology), or […] (1:10,000 dilution; Santa Cruz Biotechnology) was used to detect specific antigenic targets. […] Relative protein images were determined using the HRP-binding secondary antibody and an ECL substrate (Thermo Fishers). The intensity of immune response bands was quantified by density using ImageJ software (National Institutes of Health). […]

[13] = blood alcohol concentration (BAC) in alcohol-exposed mice; conditions: EA-pretreated group; FIG. 16
Method: as §2, §3, §4

[14] = EA-pretreated group vs alcohol-exposed group, FIGS. 17 and 19
[15] = EA-pretreated group vs alcohol-exposed mice, FIG. 19
[16] = summary statement, alcohol intake
[17] = EA-pretreated group vs alcohol-exposed group, Western blot, FIG. 20

SMILES: O=c1oc2c(O)c(O)cc3c(=O)oc4c(O)c(O)cc1c4c23 [ellagic acid]
- level of intestinal ZO-1 [1]: recovery
- level of intestinal β-catenin [1]: recovery
- increase in the level of plasma ROS attributable to alcohol intake [2]: suppressed
- hepatic triglyceride (TG) level [3]: decreased
- alcohol-induced increase in plasma endotoxin concentration [4]: suppressed
- alcohol-induced increase in intestinal TNF-α level [5]: suppressed
- level of 3-NT proteins in the intestine [6]: decreased
- level of CYP2E1 protein in the intestine [6]: decreased
- level of iNOS protein in the intestine [6]: decreased
- apoptosis of intestinal cells [7]: decrease
- activity level of CYP2E1 proteins in the liver [8, 14]: decreased
- expression level of CYP2E1 proteins in the liver [8, 14]: decreased
- hepatic 3-NT proteins [8, 15]: decreased
- hepatic inducible nitric oxide synthase (iNOS) protein [8, 15]: decreased
- plasma ALT level [9]: decreased
- gene of the genus Bacteroides ([10]; EA-pretreated mice vs alcohol-exposed group, EA 60 mg/Kg daily oral 14 days, alcohol 5 g/Kg three times, FIG. 4): decreased
- gene level of E. coli ([10]; EA-pretreated mice vs alcohol-exposed group, EA 60 mg/Kg daily oral 14 days, alcohol 5 g/Kg three times, FIG. 5): decreased to a level similar to that of the control group
- change in intestinal microbial distribution at the phylum level ([10]; control group and EA pretreatment group, EA 60 mg/Kg daily oral 14 days, female C57BL/6J mice, FIGS. 2 and 3): no significant change
- growth of Bacteroidetes (harmful bacteria) attributable to alcohol intake [10, 16]: inhibits the growth
- growth of Firmicutes (beneficial bacteria) [10, 16]: increases the growth
- growth of Verrucomicrobia (harmful bacteria) attributable to alcohol intake [10, 16]: inhibits the growth
- fat accumulation in the liver [11]: decreased
- Bax (apoptosis marker protein) in the liver [12, 17]: decreased
- p-JNK (apoptosis marker protein) in the liver [12, 17]: decreased
- apoptosis marker proteins by cleaved caspase-3 staining and TUNEL analysis in the liver ([12]; EA-pretreated group vs mice exposed to alcohol, FIGS. 21 and 22): decreased
- increase in blood alcohol concentration (BAC) caused by alcohol intake [13]: suppressed
